Columns and labels:
[1] = tested on: E. coli strain 6320 (W3110); type: cell-based; also: key: '+' indicates that the organism tested was capable of utilizing the carbon source listed; '−' indicates that the organism tested was not capable of utilizing the carbon source listed; 'w' indicates weak positive reactions
[2] = tested on: E. coli strain 13675 (O157); type: cell-based
[3] = tested on: E. coli strain 13673 (O157); type: cell-based
[4] = tested on: E. coli strain 6321 (MG1655); type: cell-based; also: key: '+' indicates that the organism tested was capable of utilizing the carbon source listed; '−' indicates that the organism tested was not capable of utilizing the carbon source listed; 'w' indicates weak positive reactions
[5] = tested on: E. coli strain 6322 (EMG2 (K12, λF+)); type: cell-based; also: key: '+' indicates that the organism tested was capable of utilizing the carbon source listed; '−' indicates that the organism tested was not capable of utilizing the carbon source listed; 'w' indicates weak positive reactions
[6] = tested on: E. coli strain 14445 (MG1655 himA); type: cell-based
[7] = tested on: E. coli strain 13671 (O157:H? gur+); type: cell-based
[8] = tested on: E. coli strain 11547 (O157:H7); type: cell-based
[9] = tested on: E. coli strain 14444 (MG1655 xylA); type: cell-based
[10] = tested on: E. coli strain 14443 (MG1655 (FB426)); type: cell-based; also: key: '+' indicates that the organism tested was capable of utilizing the carbon source listed; '−' indicates that the organism tested was not capable of utilizing the carbon source listed; 'w' indicates weak positive reactions
[11] = tested on: E. coli 287 (ATCC #11775); type: cell-based
S. typhimurium pyrCΔ73 = type: cell-based, Salmonella typhimurium
E. coli MG1655 [12] = type: cell-based
T. harzianum DAOM 190830 = type: cell-based, Trichoderma harzianum
E. coli MG1655 [13] = type: cell-based; remark: listed apart in the source

| Molecule | carbon source utilization [1] | carbon source utilization [2] | carbon source utilization [3] | carbon source utilization [4] | carbon source utilization [5] | carbon source utilization [6] | carbon source utilization [7] | carbon source utilization [8] | carbon source utilization [9] | carbon source utilization [10] | carbon source utilization result [11] | other results |
| --- | --- | --- | --- | --- | --- | --- | --- | --- | --- | --- | --- | --- |
| Maltotriose | + | + | + | + | + | − | + | + | − | + |  | carbon source utilization, in words [6]: negative; carbon source utilization, in words [9]: negative |
| O=C1O[C@H]([C@@H](O)CO)[C@@H](O)[C@@H]1O [L-galactonic acid γ-lactone] | + | + | + | + | + | + | + | + | + | + |  |  |
| C[C@H](O)C(=O)O [L-lactic acid] | + | + | + | + | + | + | + | + | + | + |  |  |
| CO[C@H]1O[C@H](CO)[C@H](O)[C@H](O)[C@H]1O [α-methyl galactoside] | + | + | + | + | + | + | + | + | + | + |  |  |
| OC[C@H]1O[C@@H](n2cnc3c(O)ncnc32)[C@H](O)[C@@H]1O [Inosine] |  |  |  |  |  |  |  |  |  |  | positive | growth stimulation by supplement (well color) (S. typhimurium pyrCΔ73): turned weakly purple; suitability as nitrogen source (growth, purple color) (E. coli MG1655 [12]): not suitable; carbon source utilization result (T. harzianum DAOM 190830): positive |
| O=P(O)(O)OCC(O)CO (racemic) [D,L-α-glycerol phosphate] | − | + | + | + | + | − | + | + | − | − | positive | suitability as phosphorus source (growth, purple color) (E. coli MG1655 [13]): positive |
| O=C(O)C[C@@H](O)C(=O)O [D-malic acid] | + |  | + | + | + | + | + | + | + | + |  |  |
| OC[C@H]1O[C@H](O[C@H]2O[C@H](CO)[C@@H](O)[C@H](O)[C@H]2O)[C@H](O)[C@@H](O)[C@@H]1O [D-trehalose] | + | + | + | + | + | + | + | + | + | + | positive | carbon source utilization result (T. harzianum DAOM 190830): positive |
| O=C(O)CC(O)C(=O)O (racemic) [D,L-malic acid] | + | + | + | + | + | + | + | + | + | + |  |  |
| O=P(O)(O)O[C@H]1O[C@H](CO)[C@@H](O)[C@H](O)[C@H]1O [Glucose-1-phosphate] | + | + | + | + | + | + | + | + | + | + | positive | suitability as phosphorus source (growth, purple color) (E. coli MG1655 [13]): positive |
| N[C@@H](C(=O)O)[C@@H](O)[C@H](O)[C@H](O)CO [D-glucosaminic acid] | − | − | − | − | − | − | − | − | − | − | negative |  |
| NCCO [2-amino ethanol] | − | − | − | − | − | − | − | − | − | − | positive/negative | suitability as nitrogen source (growth, purple color) (E. coli MG1655 [12]): not suitable |
| CC(O)CO (stereo not shown) [1,2-propanediol] | − | − | − | − | − | − | − | − | − | − |  |  |
| O=C(O)Cc1ccc(O)cc1 [P-hydroxy phenylacetic acid] | − | − | − | − | − | − | − | − | − | − | negative |  |
| O=C1O[C@@H]([C@H](O)CO)[C@H](O)[C@H]1O [D-galactonic acid-γ-lactone] | − | − | − | + | + | + | − | − | + | + | positive | carbon source utilization, in words [2]: negative; carbon source utilization, in words [3]: negative; carbon source utilization, in words [7]: negative; carbon source utilization, in words [8]: negative |
| O=C(O)C[C@H](O)C(=O)O [L-malic acid] | + | + | + | + | + | + | + | + | + | + |  |  |
| OC[C@@H](O)[C@H](O)[C@H](O)[C@@H](O)CO [Dulcitol] | − | + | − | + | − | − | + | + | − | − |  |  |
| Tween-20 | − |  |  |  |  | − |  |  | − | − |  |  |
| Nc1ccn([C@@H]2O[C@H](CO)[C@@H](OP(=O)(O)O)[C@H]2O)c(=O)n1 [cytidine 3′-monophosphate] |  |  |  |  |  |  |  |  |  |  |  | growth stimulation by supplement (well color) (S. typhimurium pyrCΔ73): turned purple; suitability as phosphorus source (growth, purple color) (E. coli MG1655 [13]): positive |
| Nc1ncnc2c1ncn2[C@@H]1O[C@H](CO)[C@@H](OP(=O)(O)O)[C@H]1O [adenosine 3-monophosphate, adenosine 3′-monophosphate] |  |  |  |  |  |  |  |  |  |  |  | growth stimulation by supplement (well color) (S. typhimurium pyrCΔ73): turned weakly purple; suitability as phosphorus source (growth, purple color) (E. coli MG1655 [13]): positive |
| Tween-80 |  |  |  | + |  | − |  |  | − | − | positive | carbon source utilization result (T. harzianum DAOM 190830): positive |
| Nc1ncnc2c1ncn2[C@@H]1O[C@H](CO)[C@@H](O)[C@H]1OP(=O)(O)O [adenosine-2′-monophosphate] |  |  |  |  |  |  |  |  |  |  |  | growth stimulation by supplement (well color) (S. typhimurium pyrCΔ73): turned weakly purple; suitability as phosphorus source (growth, purple color) (E. coli MG1655 [13]): positive |

From patent US6727076B2 (priority 1995, dated 2004)
